Data as given in patent US4978673A, “Organic salts of physostigmine derivatives” (priority 1987, dated 1990).
≈ marks a conversion by molar mass, not a printed value.

How the values were obtained:
[1] = toxicity in the rat (LD50, oral); conditions: in vivo
in vivo = conditions: rat, po
water solubility = type: physicochemical

Q: For `CCCCCCCCCNC(=O)Oc1ccc2c(c1)C1(C)CCN(C)C1N2C` (centres unmarked) [***], which LD50 [1] is on record?
A: 50 mg/kg

Q: With `CCCCNC(=O)Oc1ccc2c(c1)C1(C)CCN(C)C1N2C` (centres unmarked) [**] as the compound, how does the LD50 [1] read?
A: 6 mg/kg

Q: With `CCCCCCCNC(=O)Oc1ccc2c(c1)C1(C)CCN(C)C1N2C` (centres unmarked) [*] as the compound, how does the LD50 (in vivo) read?
A: 20 mg/kg

Q: Which solubility (water solubility; water) does the source give for `CCCCCCCNC(=O)Oc1ccc2c(c1)C1(C)CCN(C)C1N2C` (centres unmarked) [Example 1] here?
A: 700 mg/mL (≈ 1950 mM)

Q: For `CCCCCCCNC(=O)Oc1ccc2c(c1)C1(C)CCN(C)C1N2C` (centres unmarked) [corresponding non-salified derivative], which “water solubility (in words)” value (water solubility; non-salified derivative) is on record?
A: insoluble
